According to patent US9850183B2, “Conjugates derived from non-steroidal anti-inflammatory drugs and methods of use thereof in imaging” (Reiley Pharmaceuticals, Inc., priority 2014, dated 2017):
Read-outs that look alike come from different tables or passages of the source.

Tests used:
[1] = molecular target: T1, ovine COX-1 (Ovis aries, UniProt P05979); test: biochemical
T1 sequence (P05979 25-600): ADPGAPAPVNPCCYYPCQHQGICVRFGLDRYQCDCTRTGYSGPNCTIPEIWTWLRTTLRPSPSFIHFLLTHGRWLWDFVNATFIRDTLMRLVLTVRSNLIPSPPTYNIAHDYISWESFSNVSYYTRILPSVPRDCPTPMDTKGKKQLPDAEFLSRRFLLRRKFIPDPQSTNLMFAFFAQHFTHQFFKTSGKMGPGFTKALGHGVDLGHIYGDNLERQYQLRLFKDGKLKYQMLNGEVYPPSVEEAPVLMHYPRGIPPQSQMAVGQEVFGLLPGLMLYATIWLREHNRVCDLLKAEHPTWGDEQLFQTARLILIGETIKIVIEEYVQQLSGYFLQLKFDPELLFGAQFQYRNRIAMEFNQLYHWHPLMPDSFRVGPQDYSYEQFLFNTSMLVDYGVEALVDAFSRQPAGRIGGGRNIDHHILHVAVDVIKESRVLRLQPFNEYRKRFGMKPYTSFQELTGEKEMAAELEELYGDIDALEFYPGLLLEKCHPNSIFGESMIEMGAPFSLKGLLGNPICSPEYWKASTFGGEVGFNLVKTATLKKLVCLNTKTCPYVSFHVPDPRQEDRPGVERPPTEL
Description: (§1) The ability of compounds to inhibit ovine COX-1 and human COX-2 was determined using a commercially available enzyme immunoassay (EIA) kit (catalog no. 701090 (COX-1); 701080 (COX-2) Cayman Chemical Co., Ann Arbor, Mich., USA) according to the manufacturer's protocol. COX catalyzes the first step in the biosynthesis of AA to PGH2. PGF2α, produced from PGH2 by reduction with stannous chloride, was measured by EIA (ACE™ competitive EIA, Cayman Chemical, Ann Arbor, Mich., USA). Briefly, to a series of supplied reaction buffer solutions [960 μl 0.1 M Tris-HCl (pH 8.0) containing 5 mM EDTA and 2 mM phenol] with either COX-1 or COX-2 (10 μl) enzyme in the presence of heme (10 μl), 10 μl of various concentrations of test drug solutions were added. These solutions were incubated for 15 min at 37° C. and subsequently 10 μl AA solution (100 μM) was added. The COX reaction was stopped by the addition of 30 μl stannus chloride after 2 min, mixed immediately, supernatants were 2000 fold diluted. The produced PGF2α was measured by EIA. This assay is based on the competition between PGs and a PG-acetylcholinesterase conjugate (PG tracer) for a limited amount of PG antiserum. The amount of PG tracer that is able to bind to the PG antiserum is inversely proportional to the concentration of PGs in the wells since the concentration of the PG tracer is held at a constant while the concentration of PGs varies. The specific antiserum-PG complex bound to a mouse anti-rabbit IgG that had been previously attached to the well. The plate was washed to remove any unbound reagents and 200 μl Ellman's reagent (5,5′-dithiobis-(2-nitrobenzoic acid), which contains the substrate to acetylcholine esterase, was added to the well. The product of this enzymatic reaction generates a distinct yellow color that absorbs at 406 nm. The intensity of this color, determined by spectrophotometry, is proportional to the amount of PG tracer bound to the well, which is inversely proportional to the amount of PGs present in the well during the incubation. Percent inhibition was calculated by the comparison of the compounds treated to the various control incubations.
(§2) Dose-response curves were generated using XLFit (IDBS, Surrey, UK) or Prism (GraphPad Software, La Jolla, Calif., US) to calculate IC50 values for each compound tested.

[2] = molecular target: T2, human COX-2 (Homo sapiens, UniProt P35354); test: COX-2 enzyme assay (EIA kit, PGF2α readout); assay type: biochemical
T2 construct: purchased Cayman Chemical Co., Ann Arbor, Mich., USA 701080
T2 sequence (P35354 18-604): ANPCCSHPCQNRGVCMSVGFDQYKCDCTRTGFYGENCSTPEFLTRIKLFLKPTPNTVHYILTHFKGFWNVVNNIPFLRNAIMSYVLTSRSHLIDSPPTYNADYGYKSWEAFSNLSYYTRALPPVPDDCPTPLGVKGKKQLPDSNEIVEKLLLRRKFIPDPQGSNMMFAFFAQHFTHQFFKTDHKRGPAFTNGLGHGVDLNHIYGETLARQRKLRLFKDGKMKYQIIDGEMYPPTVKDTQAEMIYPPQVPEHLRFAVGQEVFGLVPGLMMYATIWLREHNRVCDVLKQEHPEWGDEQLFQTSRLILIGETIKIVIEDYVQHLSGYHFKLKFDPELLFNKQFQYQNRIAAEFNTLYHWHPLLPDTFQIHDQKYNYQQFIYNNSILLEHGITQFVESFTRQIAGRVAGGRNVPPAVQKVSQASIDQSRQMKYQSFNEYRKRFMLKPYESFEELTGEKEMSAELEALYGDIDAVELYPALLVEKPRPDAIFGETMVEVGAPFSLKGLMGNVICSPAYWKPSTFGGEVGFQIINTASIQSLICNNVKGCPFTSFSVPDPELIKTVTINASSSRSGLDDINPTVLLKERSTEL
Description: as §1, §2

[3] = molecular target: T3, COX-2 (Mus musculus, UniProt Q05769); test: Cell-based COX-2 assay (PGE2 in LPS/IFN-g stimulated RAW264.7 cells); settings: RAW264.7 murine macrophages, 1 μg/ml LPS and 10 U/ml IFN-g for 7 h, PGE2 readout
T3 construct: endogenous in cells; host or cells: RAW264.7 murine macrophages, stimulated with LPS and IFN-g
T3 sequence (Q05769 18-604): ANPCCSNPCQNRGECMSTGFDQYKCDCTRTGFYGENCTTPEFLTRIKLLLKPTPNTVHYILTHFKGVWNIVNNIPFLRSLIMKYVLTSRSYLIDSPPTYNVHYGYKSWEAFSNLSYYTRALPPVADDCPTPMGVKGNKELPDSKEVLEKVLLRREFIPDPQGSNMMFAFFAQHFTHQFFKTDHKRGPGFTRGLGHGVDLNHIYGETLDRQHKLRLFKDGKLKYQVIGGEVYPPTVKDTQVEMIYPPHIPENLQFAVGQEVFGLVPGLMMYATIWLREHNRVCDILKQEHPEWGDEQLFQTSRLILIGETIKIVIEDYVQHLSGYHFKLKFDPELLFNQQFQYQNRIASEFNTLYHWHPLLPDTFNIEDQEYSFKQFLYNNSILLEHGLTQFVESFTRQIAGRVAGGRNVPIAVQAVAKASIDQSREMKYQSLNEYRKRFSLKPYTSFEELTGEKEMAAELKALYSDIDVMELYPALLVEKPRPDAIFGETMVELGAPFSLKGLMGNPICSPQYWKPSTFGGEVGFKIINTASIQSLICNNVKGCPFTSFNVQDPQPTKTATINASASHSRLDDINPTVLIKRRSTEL
Description: RAW264.7 murine macrophages were obtained from the Cell Bank of Shanghai Institute of Biochemistry and Cell Biology, Chinese Academy of Sciences (Shanghai, China) and cultured in Dulbecco's modified Eagle's medium containing 100 U/ml penicillin and 100 μg/ml streptomycin at 37° C. in 5% CO2.
RAW264.7 cells were plated at a density of 2.5×10^5/ml cells in a 96-well plate with 0.1 ml of culture medium per well and cultured overnight. The cells were pre-incubated for 30 min with various doses of compounds and stimulated for 7 h with 1 μg/ml LPS and 10 U/ml IFN-g. The cell culture supernatants were collected immediately following treatment and centrifuged at 1,000 rpm for 5 min to remove the particulate matter. PGE2 was determined using a Prostaglandin E2 assay kit (catalog no. 62P2APEB; Cisbio Co.,). 10 μL of cell supernatant was transferred to a 384-well low volume plate (e.g. Corning® 3544), 5 μL of PGE2-d2 was added, followed by 5 μL anti-PGE2 Cryptate as a negative control. Replace the standard by 10 μL of diluent and PGE2-d2 by 5 μL of reconstitution buffer, Cal0 (for positive control), replace the standard by 10 μL of diluent. Incubate at 4° C. overnight. After centrifuging at 1,000 rpm for 1 min, the dual fluorescence emissions of 615 and 665 nm with a 320 nm excitation were measured using an Envision plate reader (Perkin Elmer, Shelton, Conn.). The results are expressed as the ratio of 665 nm/615 nm emissions.
as §2

[4] = ovine COX-1 enzyme, EIA, read-out: COX-1 IC50 (μm) enzyme
[5] = human COX-2 enzyme, EIA, 15 min pre-incubation at 37° C., read-out: COX-2 IC50 (μM) enzyme

| Structure (SMILES) | IC50 [1, 4] [nM] | IC50 [2, 5] [µM] | IC50 [3] [µM] | IC50 [1] [nM] | IC50 [2] [µM] |
| --- | --- | --- | --- | --- | --- |
| COc1ccc2c(c1)c(CC(=O)NCCCCCCNC(=O)[c-]1cccc1)c(C)n2C(=O)c1ccc(Cl)cc1.[C-]#[O+].[C-]#[O+].[C-]#[O+].[Re+] [Compound 242] | > 30000 | 0.3 | 0.4 |  |  |
| COc1ccc2c(c1)c(CC(=O)NCCCCCCCNC(=O)[c-]1cccc1)c(C)n2C(=O)c1ccc(Cl)cc1.[C-]#[O+].[C-]#[O+].[C-]#[O+].[Re+] [Compound 246] | > 30000 | 0.1 | 0.2 |  |  |
| COc1ccc2c(c1)c(CC(=O)NCCCCCC[N+]13CC[S][Re-]14(=[O])[S]CC[N]4C(=O)C3)c(C)n2C(=O)c1ccc(Cl)cc1 (centres unmarked) [Compound 260] | > 30000 | 0.3 | 0.2 |  |  |
| COc1ccc2c(c1)c(CC(=O)NCCCS(=O)(=O)CCC[N+]13CC[S][Re-]14(=[O])[S]CC[N]4C(=O)C3)c(C)n2C(=O)c1ccc(Cl)cc1 (centres unmarked) [Compound 268] |  | > 30 | > 10 |  |  |
| COc1ccc2c(c1)c(CC(=O)NCCOCCOCC[N+]13CC[S][Re-]14(=[O])[S]CC[N]4C(=O)C3)c(C)n2C(=O)c1ccc(Cl)cc1 (centres unmarked) [Compound 269] |  | 0.5 | 0.9 |  |  |
| COc1ccc2c(c1)c(CC(=O)NCCCCCC[N+]13CC[S][Re-]14(=[O])[S]CC[N]4CC3)c(C)n2C(=O)c1ccc(Cl)cc1 (centres unmarked) [Compound 275] | > 30000 | 0.7 | 0.2 |  |  |
| COc1ccc2c(c1)c(CC(=O)NCCCCCCC[N+]13CC[S][Re-]14(=[O])[S]CC[N]4CC3)c(C)n2C(=O)c1ccc(Cl)cc1 (centres unmarked) [Compound 305] |  |  | 0.1 | > 30000 | 0.3 |
| COc1ccc2c(c1)c(CC(=O)NCCC(C)(C)CC[N+]13CC[S][Re-]14(=[O])[S]CC[N]4CC3)c(C)n2C(=O)c1ccc(Cl)cc1 (centres unmarked) [Compound 307] |  | > 30 | 0.5 |  |  |
| COc1ccc2c(c1)c(CC(=O)NCCCCCNC(=O)c1ccc[cH-]1)c(C)n2C(=O)c1ccc(Cl)cc1.[C-]#[O+].[C-]#[O+].[C-]#[O+].[Re+] [Compound 308] |  | 0.9 | 0.2 |  |  |
| COc1ccc2c(c1)c(CC(=O)NCCC(C)(C)CCNC(=O)c1ccc[cH-]1)c(C)n2C(=O)c1ccc(Cl)cc1.[C-]#[O+].[C-]#[O+].[C-]#[O+].[Re+] [Compound 309] |  | 0.5 | 0.3 |  |  |
| COc1ccc2c(c1)c(CC(=O)NCCCOCCCNC(=O)c1ccc[cH-]1)c(C)n2C(=O)c1ccc(Cl)cc1.[C-]#[O+].[C-]#[O+].[C-]#[O+].[Re+] [Compound 310] |  | > 30 | 0.2 |  |  |
| COc1ccc2c(c1)c(CC(=O)NCCCCC(C)(C)NC(=O)c1ccc[cH-]1)c(C)n2C(=O)c1ccc(Cl)cc1.[C-]#[O+].[C-]#[O+].[C-]#[O+].[Re+] [Compound 312] |  | 0.1 | 0.4 |  |  |
| COc1ccc2c(c1)c(CC(=O)N[C@H](C)CCCCC[N+]13CC[S][Re-]14(=[O])[S]CC[N]4C(=O)C3)c(C)n2C(=O)c1ccc(Cl)cc1 (some centres unmarked) [Compound 328] |  | 0.6 | 0.1 |  |  |
| COc1ccc2c(c1)c(CC(=O)NCCC=CCC[N+]13CC[S][Re-]14(=[O])[S]CC[N]4C(=O)C3)c(C)n2C(=O)c1ccc(Cl)cc1 (centres unmarked) [Compound 341] |  | 0.8 | 0.3 |  |  |
| [2H]C([2H])([2H])Oc1ccc2c(c1)c(CC(=O)NCCCCCC[N+]13CC[S][Re-]14(=[O])[S]CC[N]4C(=O)C3)c(C)n2C(=O)c1ccc(Cl)cc1 (centres unmarked) [Compound 346] |  | 0.3 | 0.2 |  |  |
| COc1ccc2c(c1)c(CC(=O)NCCCCCC[N+]13CC[S][Re-]14(=[O])[S]CC[N]4C(=O)C3)c(C(F)(F)F)n2C(=O)c1ccc(Cl)cc1 (centres unmarked) [Compound 351] |  | > 30 | 0.4 |  |  |
| COc1ccc2c(c1)c(CCNC(=O)CCCCC[N+]13CC[S][Re-]14(=[O])[S]CC[N]4C(=O)C3)c(C)n2C(=O)c1ccc(Cl)cc1 (centres unmarked) [Compound 359] |  | 0.6 | 0.2 |  |  |
| NS(=O)(=O)c1ccc(-n2nc(CNC(=O)c3ccc[cH-]3)cc2-c2ccc(F)cc2)cc1.[C-]#[O+].[C-]#[O+].[C-]#[O+].[Re+] [Compound 365] |  | 7.9 | 1.1 |  |  |
| NS(=O)(=O)c1ccc(-n2nc(CNC(=O)CCCCC[N+]34CC[S][Re-]35(=[O])[S]CC[N]5C(=O)C4)cc2-c2ccc(F)cc2)cc1 (centres unmarked) [Compound 367] |  |  | > 10 |  | 4.5 |
| COc1ccc2c(c1)c(CCNCc1ccccn1)c(C)n2C(=O)c1ccc(Cl)cc1 [Compound 369] | > 30000 |  |  |  |  |
